Test system: OVCAR-5 complex spheroids with HUVEC/MSC, viability, % test/control
Assay: Anticancer human tumor OVCAR-5 cell line growth inhibition [AhR];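 also: spheroids exposed to compounds for 7 days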;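 as to viability, T/C: 100% = DMSO vehicle control wells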
Conditions: for IC50: curve of first compound; for viability, T/C: stronger effect = lower value
In short: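 Agents were dosed in half-log steps down from roughly clinical Cmax, or from 10 microM where Cmax was unknown, alone and with AhR antagonists. Read-out: percent test/control growth of tumor spheroids containing HUVEC and MSC stromal cells.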

[1] = second compound 0.1 µM, first compound 0.0316 µM
[2] = second compound 0.1 µM, first compound 0.1 µM
[3] = second compound 0.1 µM, first compound 0.316 µM
[4] = second compound 0.1 µM, first compound 1 µM
[5] = second compound 0.1 µM, first compound 3.16 µM
[6] = second compound 0.1 µM, first compound 10 µM
[7] = second compound 0.316 µM, first compound 0.0316 µM
[8] = second compound 0.316 µM, first compound 0.1 µM
[9] = second compound 0.316 µM, first compound 0.316 µM
[10] = second compound 0.316 µM, first compound 1 µM
[11] = second compound 0.316 µM, first compound 3.16 µM
[12] = second compound 0.316 µM, first compound 10 µM
[13] = second compound 1 µM, first compound 0.0316 µM
[14] = second compound 1 µM, first compound 0.1 µM
[15] = second compound 1 µM, first compound 0.316 µM
[16] = second compound 1 µM, first compound 1 µM
[17] = second compound 1 µM, first compound 3.16 µM
[18] = second compound 1 µM, first compound 10 µM
[19] = second compound 3.16 µM, first compound 0.0316 µM
[20] = second compound 3.16 µM, first compound 0.1 µM
[21] = second compound 3.16 µM, first compound 0.316 µM
[22] = second compound 3.16 µM, first compound 1 µM
[23] = second compound 3.16 µM, first compound 3.16 µM
[24] = second compound 3.16 µM, first compound 10 µM
[25] = second compound 10 µM, first compound 0.0316 µM
[26] = second compound 10 µM, first compound 0.1 µM
[27] = second compound 10 µM, first compound 0.316 µM
[28] = second compound 10 µM, first compound 1 µM
[29] = second compound 10 µM, first compound 3.16 µM
[30] = second compound 10 µM, first compound 10 µM

Row | Compound | IC50 (second compound 0.1 µM) | IC50 (second compound 0.316 µM) | IC50 (second compound 1 µM) | IC50 (second compound 3.16 µM) | IC50 (second compound 10 µM) | viability, T/C [1] | viability, T/C [2] | viability, T/C [3] | viability, T/C [4] | viability, T/C [7] | viability, T/C [8] | viability, T/C [9] | viability, T/C [10] | viability, T/C [13] | viability, T/C [14] | viability, T/C [15] | viability, T/C [16] | viability, T/C [19] | viability, T/C [20] | viability, T/C [21] | further results
1 | COc1cc(C2c3cc4c(cc3C(OC3OC5COC(C)OC5C(O)C3O)C3COC(=O)C23)OCO4)cc(OC)c1O (stereo not given) + Cc1ccccc1N=Nc1ccc(NC(=O)c2ccnn2C)c(C)c1 | 2090 nM | 2250 nM | 2500 nM | 2750 nM | 2910 nM | 105% | 104% | 98.8% | 68.3% | 114% | 114% | 103% | 68.8% | 115% | 116% | 105% | 73.5% | 112% | 121% | 110% | viability, T/C [5]: 40.4%; viability, T/C [6]: 32.1%; viability, T/C [11]: 43.4%; viability, T/C [12]: 32.9%; viability, T/C [17]: 44.1%; viability, T/C [18]: 36.1%; viability, T/C [22]: 77.1%; viability, T/C [23]: 47.9%; viability, T/C [24]: 38.2%; viability, T/C [25]: 105%; viability, T/C [26]: 107%; viability, T/C [27]: 98%; viability, T/C [28]: 68.8%; viability, T/C [29]: 51.8%; viability, T/C [30]: 38.9%
2 | COc1cccc2c1C(=O)c1c(O)c3c(c(O)c1C2=O)CC(O)(C(=O)CO)CC3OC1CC(N)C(O)C(C)O1 (stereo not given) + Cc1ccccc1N=Nc1ccc(NC(=O)c2ccnn2C)c(C)c1 | 139 nM | 164 nM | 231 nM | 269 nM | 391 nM | 60.9% | 48.8% | 42.5% | 23.8% | 61.6% | 51.7% | 43.6% | 23.7% | 63.4% | 53.2% | 48% | 22.3% | 65.3% | 59.4% | 48% | viability, T/C [5]: 1.63%; viability, T/C [6]: 0.98%; viability, T/C [11]: 1.72%; viability, T/C [12]: 1.7%; viability, T/C [17]: 1.44%; viability, T/C [18]: 1%; viability, T/C [22]: 23%; viability, T/C [23]: 1.21%; viability, T/C [24]: 1.15%; viability, T/C [25]: 63.4%; viability, T/C [26]: 62.2%; viability, T/C [27]: 55%; viability, T/C [28]: 25.1%; viability, T/C [29]: 1.08%; viability, T/C [30]: 1.24%
3 | Nc1ncn(C2CC(O)C(CO)O2)c(=O)n1 (stereo not given) + Cc1ccccc1N=Nc1ccc(NC(=O)c2ccnn2C)c(C)c1 | > 1000 nM | > 1000 nM | > 1000 nM | > 1000 nM | > 1000 nM | 88.3% | 76.4% | 65% | 64.5% | 94.3% | 79.6% | 69.3% | 59.2% | 98.2% | 81.4% | 68.9% | 62% | 100% | 85.9% | 72% | viability, T/C (second compound 0.1 µM, first compound 0.00316 µM): 99%; viability, T/C (second compound 0.1 µM, first compound 0.01 µM): 98.3%; viability, T/C (second compound 0.316 µM, first compound 0.00316 µM): 104%; viability, T/C (second compound 0.316 µM, first compound 0.01 µM): 104%; viability, T/C (second compound 1 µM, first compound 0.00316 µM): 108%; viability, T/C (second compound 1 µM, first compound 0.01 µM): 105%; viability, T/C (second compound 3.16 µM, first compound 0.00316 µM): 105%; viability, T/C (second compound 3.16 µM, first compound 0.01 µM): 109%; viability, T/C [22]: 62.2%; viability, T/C (second compound 10 µM, first compound 0.00316 µM): 104%; viability, T/C (second compound 10 µM, first compound 0.01 µM): 109%; viability, T/C [25]: 100%; viability, T/C [26]: 82.5%; viability, T/C [27]: 68.1%; viability, T/C [28]: 61.4%
